Data as given in US20090312335A1 (priority 2005, published 2009).

System: HIV replication
Assay: Inhibition of acute HIV infection with HeLa P4-2 cells, single cycle infectivity ("vertical") assay
Assay type: cell-based
Settings: Human immunodeficiency virus 1, HeLaP4-2
Excerpt: The inhibitory activity of the compounds of the present invention may be measured by assays known in the art. […] Preferred compounds have IC50 values of ≦1 micromolar in this integrase assay. […] 1992, 66, 2232 for measuring the inhibition of acute HIV infection with HeLa P4-2 cells in a single cycle infectivity assay.
An assay for measuring the inhibition of acute HIV infection with HeLa P4-2 cells in a single cycle infectivity assay (alternatively referred to as the “vertical” assay) was conducted in accordance with Joyce, J. G., et al., J. Biol. Chem., 2002, 277, 45811, Hazuda, D. J. et al., Science, 2000, 287, 646, and Kimpton, J. et al, J. Virol. 1992, 66, 2232.

Structure (SMILES) | IC50
CN1CCn2cc(-c3nnc(Cc4ccc(F)cc4)s3)c(O)c2C1=O [Example 1, 7-[5-(4-Fluorobenzyl)-1,3,4-thiadiazol-2-yl]-8-hydroxy-2-methyl-3,4-dihydropyrrolo[1,2-a]pyrazin-1(2H)-one] | < 35 µM
CN1CCn2cc(-c3nnc(Cc4ccc(F)cc4)[nH]3)c(O)c2C1=O [Example 3] | < 35 µM
CN1C[C@H](c2ccccc2)n2nc(-c3nnc(Cc4ccc(F)cc4)o3)c(O)c2C1=O [Example 5, (7S)-2-[5-(4-Fluorobenzyl)-1,3,4-oxadiazol-2-yl]-3-hydroxy-5-methyl-7-phenyl-6,7-dihydropyrazolo[1,5a]pyrazin-4(5H)-one] | < 35 µM
CN1C[C@H](c2ccccc2)n2nc(-c3nnc(Cc4ccc(F)cc4)s3)c(O)c2C1=O [Example 4, (7S)-2-[5-(4-Fluorobenzyl)-1,3,4-thiadiazol-2-yl]-3-hydroxy-5-methyl-7-phenyl-6,7-dihydropyrazolo[1,5a]pyrazin-4(5H)-one] | < 35 µM
CN1CCn2cc(-c3nnc(Cc4ccc(F)cc4)o3)c(O)c2C1=O [Example 2, 7-[5-(4-Fluorobenzyl)-1,3,4-oxadiazol-2-yl]-8-hydroxy-2-methyl-3,4-dihydropyrrolo[1,2-a]pyrazin-1(2H)-one] | < 35 µM
